# Source: US20120059024A1 (priority 2009, published 2012)
# Where “and” joins values, the source holds several entries; their conditions need not be identical. Identical values can stand only once. Like-named read-outs stand apart in the source and are kept apart here.
# Experiments:
# [1] = in vivo, cited from earlier work
# young adult Wistar rats = settings: intraperitoneal
# [2] = Mean Equivalent Daily Dose (MEDD) conversion table for opioids; assay type: in vivo
# human volunteers = experiment: Human drug liking study; settings: any dose of oxycodone alone vs same dose combined with 100 mg flupirtine, oral capsule
SMILES,MEDD-Factor ([1]; po),MEDD-Factor ([1]; sc),MEDD-Factor ([1]; iv),further results
COc1ccc2c3c1O[C@H]1[C@@H](O)C=C[C@H]4[C@@H](C2)N(C)CC[C@@]341 [Codeine],0.05,0.1,–,MEDD-Factor [1]: 0.1 and 0.05
CC(=O)Oc1ccc2c3c1O[C@H]1[C@@H](OC(C)=O)C=C[C@H]4[C@@H](C2)N(C)CC[C@@]341 [Diamorphine],0.65,1.3,–,–
COc1ccc2c3c1O[C@H]1C(=O)CC[C@H]4[C@@H](C2)N(C)CC[C@]314 [Hydrocodone],0.4,–,–,–
CN1CC[C@]23CCCC[C@H]2[C@H]1Cc1ccc(O)cc13 [Levo-dromoran],–,5,–,MEDD-Factor [1]: 0.25
CCOC(=O)C1(c2ccccc2)CCN(C)CC1 [Meperidine],0.05,0.1,0.1,–
CCC(=O)C(CC(C)N(C)C)(c1ccccc1)c1ccccc1 (stereo not drawn) [Methadone],4,8,8,–
CN1CC[C@]23c4c5ccc(O)c4O[C@H]2[C@@H](O)C=C[C@H]3[C@H]1C5 [Morphine],0.4,1,1,sedation (young adult Wistar rats; 1.6 mg/kg morphine): not sedating; dose equivalent to a 100 mg dose of morphine administered orally ([2]; administered intravenously): 40 mg
COc1ccc2c3c1O[C@H]1C(=O)CC[C@@]4(O)[C@@H](C2)N(C)CC[C@]314 [Oxycodone],0.63,1.5,–,"subject preference (drug liking) (human volunteers): preferred to, or no less preferred to; dose equivalent to a 100 mg dose of morphine administered orally ([2]; orally administered): 63 mg"
COc1cccc(C2(O)CCCCC2CN(C)C)c1 (stereo not drawn) [Tramadol],0.05,0.1,–,–
CCOC(=O)Nc1ccc(NCc2ccc(F)cc2)nc1N [flupirtine],–,–,–,"sedation (young adult Wistar rats; 10 mg/kg flupirtine, criteria of Goodchild et al. 2008): non-sedating; sedation (young adult Wistar rats; 20 mg/kg flupirtine, criteria of Goodchild et al. 2008): sedating"
